Columns and labels:
Format in all cases: in vivo
[1] = tested on: Erysiphe graminis f. sp. tritici; experiment: Test A: preventive spray on wheat seedlings, wheat powdery mildew, disease rating; conditions: wheat seedlings sprayed to run-off, inoculated the following day with Erysiphe graminis f. sp. tritici, rated after 7 days at 20° C.; test concentration not given
Text: General protocol for preparing test suspensions: Test compounds were first dissolved in acetone in an amount equal to 3% of the final volume and then suspended at the desired concentration (in ppm) in acetone and purified water (50/50 mix) containing 250 ppm of the surfactant Trem® 014 (polyhydric alcohol esters). The resulting test suspensions were then used in the following tests. Spraying a 200 ppm test suspension to the point of run-off on the test plants was the equivalent of a rate of 500 g/ha. The test suspension was sprayed to the point of run-off on wheat seedlings. The following day the seedlings were inoculated with a spore dust of Erysiphe graminis f. sp. tritici, (the causal agent of wheat powdery mildew) and incubated in a growth chamber at 20° C. for 7 days, after which disease ratings were made. Results for Tests A-C are given in Table A. In the table, a rating of 100 indicates 100% disease control and a rating of 0 indicates no disease control (relative to the controls). A dash (-) indicates no test results.

[2] = tested on: Puccinia recondita; experiment: Test B: preventive spray on wheat seedlings, wheat leaf rust, disease rating; conditions: wheat seedlings sprayed to run-off, inoculated the following day with Puccinia recondita, 24 h saturated atmosphere then 6 days at 20° C.; test concentration not given
Text: (§1) General protocol for preparing test suspensions: Test compounds were first dissolved in acetone in an amount equal to 3% of the final volume and then suspended at the desired concentration (in ppm) in acetone and purified water (50/50 mix) containing 250 ppm of the surfactant Trem® 014 (polyhydric alcohol esters). The resulting test suspensions were then used in the following tests. Spraying a 200 ppm test suspension to the point of run-off on the test plants was the equivalent of a rate of 500 g/ha. The test suspension was sprayed to the point of run-off on wheat seedlings. The following day the seedlings were inoculated with a spore suspension of Puccinia recondita (the causal agent of wheat leaf rust) and incubated in a saturated atmosphere at 20° C. for 24 h, and then moved to a growth chamber at 20° C. for 6 days, after which disease ratings were made. Results for Tests A-C are given in Table A. In the table, a rating of 100 indicates 100% disease control and a rating of 0 indicates no disease control (relative to the controls). A dash (-) indicates no test results.

[3] = tested on: Septoria nodorum; experiment: Test C: preventive spray on wheat seedlings, Septoria glume blotch, disease rating; conditions: wheat seedlings sprayed to run-off, inoculated the following day with Septoria nodorum, 48 h saturated atmosphere then 9 days at 20° C.; test concentration not given
Text: as §1, with “Septoria nodorum” for “Puccinia recondita”, “Septoria glume blotch)” for “wheat leaf rust)”, “48” for “24”, “9” for “6”

Row | Structure (SMILES) | Test A disease control rating (100 = 100% disease control, 0 = no disease control relative to the controls) [1] | Test B disease control rating (100 = 100% disease control, 0 = no disease control relative to the controls) [2] | Test C disease control rating (100 = 100% disease control, 0 = no disease control relative to the controls) [3]
1 | CC(C)=CCC[C@@H](C)CCOc1cc(C)c(N=CN(C)C)cc1C [Compound 15] | 94% | 100% | 0%
2 | Cc1cc(SC(C)CCC(C)C)c(C)cc1N=CN(C)C (stereo not drawn) [compound 105] | 97% | 100% | 98%
3 | CCN(CC)C(=S)Nc1cc(Cl)c(OCCCC(C)(C)C)cc1C [compound 177] | 96% | 100% | 100%
4 | CCN(CC)C(=S)Nc1cc(C)c(OCCCC(C)(C)C)cc1C [compound 191] | 63% | 99% | 91%
5 | CC[Si](C)(C)CCCOc1cc(C)c(N=CN(C)C)cc1C [Compound 51] | 96% | 100% | 100%
6 | CCCCCCCOc1cc(C)c(N=CN(C)C)cc1C [Compound 21] | 98% | 100% | 96%
7 | CC(=Nc1cc(C)c(OC(CCC(C)C)CCC(C)C)cc1C)N(C)C [compound 103] | 31% | 0% | 0%
8 | CCCCCCCCCCCCOc1cc(C)c(N=CN(C)C)cc1C [Compound 25] | 0% | 90% | 0%
9 | CCN(C)C=Nc1cc(Cl)c(OCCC[Si](C)(C)C)c(Cl)c1C [compound 182] | 98% | 79% | 67%
10 | C=C(C)CC(CC)Sc1cc(C)c(N=CN(C)C)cc1C (stereo not drawn) [compound 161] | 72% | 100% | 53%
11 | CCN(C)C=Nc1cc(C)c(OCCCC(C)(C)C)c(Cl)c1C [compound 201] | 100% | 100% | 100%
12 | CC(=Nc1cc(Cl)c(OCCCC(C)C)cc1C)N(C)C [compound 110] | 42% | 97% | 99%

From patent US20050182025A1, “Amidinylphenyl compounds and their use as fungicides” (priority 2002, published 2005)
